target: T1, human liver GK (Homo sapiens, UniProt P35557); assay: GK activation test; assay type: biochemical; conditions: test compound concentration needed to activate 50% of maximum activation ability; 4 mM 14C-labeled glucose, 2 mM ATP, room temperature, 20 minutes
T1 construct: GST (glutathione S-transferase) (N); made in house; host or cells: E. coli
T1 sequence (P35557 1-466 isoform P35557-2): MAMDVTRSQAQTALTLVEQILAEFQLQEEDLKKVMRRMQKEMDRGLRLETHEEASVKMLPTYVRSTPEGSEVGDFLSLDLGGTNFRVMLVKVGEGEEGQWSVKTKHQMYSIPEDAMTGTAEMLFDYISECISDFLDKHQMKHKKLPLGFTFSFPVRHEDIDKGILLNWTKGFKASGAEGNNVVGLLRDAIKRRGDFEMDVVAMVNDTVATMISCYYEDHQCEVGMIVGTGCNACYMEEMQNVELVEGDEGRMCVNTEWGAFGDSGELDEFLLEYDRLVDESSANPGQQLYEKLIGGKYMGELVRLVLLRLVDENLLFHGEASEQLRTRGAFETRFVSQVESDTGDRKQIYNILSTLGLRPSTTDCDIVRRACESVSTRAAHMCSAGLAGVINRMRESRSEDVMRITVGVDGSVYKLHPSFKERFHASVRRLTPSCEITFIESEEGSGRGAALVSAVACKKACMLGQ
How it was run: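 GST-tagged human liver GK from E. coli (0.24 μg/well) with 4 mM 14C-glucose, 2 mM ATP in Hepes-KOH pH 7.1, KCl, MgCl2, DTT, 1% DMSO, 20 min room temperature. Labeled glucose 6-phosphate captured on anion resin, eluted and counted. EC50 = concentration giving half of maximal activation.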

Row | EC50 [nM] | SMILES
1 | 3000 to 10000 | O=C1CC[C@H](/C=C(\c2cccc(SC3CC3)c2)c2ccc(Cl)c(=O)[nH]2)N1 [Example 4-36, 3-Chloro-6-{(E)-1-[3-(cyclopropylsulfanyl)phenyl]-2-[(2R)-5-oxopyrrolidin-2-yl]ethenyl}pyridin-2(1H)-one]
2 | 10 to 500 | O=C1CC[C@H](/C=C(\c2ccc(SC3CC3)cc2)c2ccc(Cl)c(=O)[nH]2)N1 [Example 4-37, 3-Chloro-6-{(E)-1-[4-(cyclopropylsulfanyl)phenyl]-2-[(2R)-5-oxopyrrolidin-2-yl]ethenyl}pyridin-2(1H)-one]
3 | 10 to 500 | CSc1ccc(/C(=C\[C@H]2CCN(C(C)=O)C2)c2ccc(C3CC3)c(=O)[nH]2)cc1 [Example 4-39, 6-{(E)-2-[(3R)-1-Acetylpyrrolidin-3-yl]-1-[4-(methylsulfanyl)phenyl]ethenyl}-3-cyclopropylpyridin-2(1H)-one]
4 | 500 to 3000 | CCc1ccc(/C(=C\[C@H]2CCN(C(C)=O)C2)c2ccc(Cl)c(=O)[nH]2)cc1 [Example 4-40, 6-[(E)-2-[(3R)-1-Acetylpyrrolidin-3-yl]-1-(4-ethylphenyl)ethenyl]-3-chloropyridin-2(1H)-one]
5 | 500 to 3000 | CCOc1ccc(/C(=C\[C@H]2CCN(C(C)=O)C2)c2ccc(Cl)c(=O)[nH]2)cc1Cl [Example 4-41, 6-[(E)-2-[(3R)-1-Acetylpyrrolidin-3-yl]-1-(3-chloro-4-ethoxyphenyl)ethenyl]-3-chloropyridin-2(1H)-one]
6 | 3000 to 10000 | CSc1ccc(/C(=C\C2CCN(C(C)=O)CC2)c2ccc(C3CC3)c(=O)[nH]2)cc1 [Example 4-42, 6-{(E)-2-(1-Acetylpiperidin-4-yl)-1-[4-(methylsulfanyl)phenyl]ethenyl}-3-cyclopropylpyridin-2(1H)-one]
7 | 3000 to 10000 | CC(=O)N1CCC(/C=C(\c2ccc(S(C)(=O)=O)cc2)c2ccc(C3CC3)c(=O)[nH]2)CC1 [Example 4-43, 6-{(E)-2-(1-Acetylpiperidin-4-yl)-1-[4-(methylsulfonyl)phenyl]ethenyl}-3-cyclopropylpyridin-2(1H)-one]
8 | 500 to 3000 | CSc1ccc(/C(=C\C2CN(C(C)=O)C2)c2ccc(C3CC3)c(=O)[nH]2)cc1 [Example 4-44, 6-{(E)-2-(1-Acetylazetidin-3-yl)-1-[4-(methylsulfanyl)phenyl]ethenyl}-3-cyclopropylpyridin-2(1H)-one]
9 | 10 to 500 | CSc1ccc(/C(=C\[C@H]2CCC(=O)N2C)c2ccc(C3CC3)c(=O)[nH]2)cc1 [Example 4-45, 3-Cyclopropyl-6-{(E)-2-[(2R)-1-methyl-5-oxopyrrolidin-2-yl]-1-[4-(methylsulfanyl)phenyl]ethenyl}pyridin-2(1H)-one]
10 | 500 to 3000 | CCc1ccc(/C(=C\[C@H]2CCCN2C(C)=O)c2ccc(Cl)c(=O)[nH]2)cc1 [Example 4-47, 6-[(E)-2-[(2R)-1-Acetylpyrrolidin-2-yl]-1-(4-ethylphenyl)ethenyl]-3-chloropyridin-2(1H)-one]
11 | 500 to 3000 | CCOc1ccc(/C(=C\[C@H]2CCC(=O)N2)c2ccc(Cl)c(=O)[nH]2)cc1 [Example 4-48, 3-Chloro-6-{(E)-1-(4-ethoxyphenyl)-2-[(2R)-5-oxopyrrolidin-2-yl]ethenyl}pyridin-2(1H)-one]
12 | 500 to 3000 | CCOc1ccc(/C(=C\[C@H]2CCC(=O)N2)c2ccc(Cl)c(=O)[nH]2)cc1F [Example 4-49, 3-Chloro-6-{(E)-1-(4-ethoxy-3-fluorophenyl)-2-[(2R)-5-oxopyrrolidin-2-yl]ethenyl}pyridin-2(1H)-one]
13 | 500 to 3000 | CCOc1ccc(/C(=C\[C@H]2CCC(=O)N2)c2ccc(Cl)c(=O)[nH]2)cc1C [Example 4-50, 3-Chloro-6-{(E)-1-(4-ethoxy-3-methylphenyl)-2-[(2R)-5-oxopyrrolidin-2-yl]ethenyl}pyridin-2(1H)-one]
14 | 500 to 3000 | CCOc1ccc(/C(=C\[C@H]2CCC(=O)N2)c2ccc(Cl)c(=O)[nH]2)cc1C(F)(F)F [Example 4-51, 3-Chloro-6-{(E)-1-[4-ethoxy-3-(trifluoromethyl)phenyl]-2-[(2R)-5-oxopyrrolidin-2-yl]ethenyl}pyridin-2(1H)-one]
15 | 500 to 3000 | Cc1cc(/C(=C\[C@H]2CCC(=O)N2)c2ccc(Cl)c(=O)[nH]2)ccc1OCCCO [Example 4-52, 3-Chloro-6-{(E)-1-[4-(3-hydroxypropoxy)-3-methylphenyl]-2-[(2R)-5-oxopyrrolidin-2-yl]ethenyl}pyridin-2(1H)-one]
16 | 10 to 500 | CS(=O)(=O)c1ccc(/C(=C\[C@H]2CCC(=O)N2)c2ccc(C3CC3)c(=O)[nH]2)cc1 [Example 4-53, 3-Cyclopropyl-6-{(E)-1-[4-(methylsulfonyl)phenyl]-2-[(2R)-5-oxopyrrolidin-2-yl]ethenyl}pyridin-2(1H)-one]
17 | 10 to 500 | Cc1cc(/C(=C\[C@H]2CCC(=O)N2)c2ccc(C3CC3)c(=O)[nH]2)ccc1S(=O)(=O)C1CC1 [Example 4-54, 3-Cyclopropyl-6-{(E)-1-[4-(cyclopropylsulfonyl)-3-methylphenyl]-2-[(2R)-5-oxopyrrolidin-2-yl]ethenyl}pyridin-2(1H)-one]
18 | 10 to 500 | Cc1cc(/C(=C\[C@H]2CCC(=O)N2)c2ccc(Cl)c(=O)[nH]2)ccc1S(=O)(=O)C1CC1 [Example 4-55, 3-Chloro-6-{(E)-1-[4-(cyclopropylsulfonyl)-3-methylphenyl]-2-[(2R)-5-oxopyrrolidin-2-yl]ethenyl}pyridin-2(1H)-one]
19 | 500 to 3000 | CS(=O)(=O)c1ccc(/C(=C\[C@H]2CCC(=O)N2)c2ccc(Cl)c(=O)[nH]2)cc1C(F)(F)F [Example 4-56, 3-Chloro-6-{(E)-1-[4-(methylsulfonyl)-3-(trifluoromethyl)phenyl]-2-[(2R)-5-oxopyrrolidin-2-yl]ethenyl}pyridin-2(1H)-one]
20 | 10 to 500 | O=C1CC[C@H](/C=C(\c2ccc(S(=O)(=O)C3CC3)cc2)c2ccc(Cl)c(=O)[nH]2)N1 [Example 4-57, 3-Chloro-6-{(E)-1-[4-(cyclopropylsulfonyl)phenyl]-2-[(2R)-5-oxopyrrolidin-2-yl]ethenyl}pyridin-2(1H)-one]
21 | 500 to 3000 | CCS(=O)(=O)c1ccc(/C(=C\[C@H]2CCC(=O)N2)c2ccc(Cl)c(=O)[nH]2)cc1Cl [Example 4-58, 3-Chloro-6-{(E)-1-[3-chloro-4-(ethylsulfonyl)phenyl]-2-[(2R)-5-oxopyrrolidin-2-yl]ethenyl}pyridin-2(1H)-one]
22 | 10 to 500 | O=C1CC[C@H](/C=C(\c2ccc(S(=O)(=O)C3CC3)c(Cl)c2)c2ccc(Cl)c(=O)[nH]2)N1 [Example 4-59, 3-Chloro-6-{(E)-1-[3-chloro-4-(cyclopropylsulfonyl)phenyl]-2-[(2R)-5-oxopyrrolidin-2-yl]ethenyl}pyridin-2(1H)-one]
23 | 10 to 500 | O=C1CC[C@H](/C=C(\c2ccc(S(=O)(=O)C3CCCC3)cc2)c2ccc(Cl)c(=O)[nH]2)N1 [Example 4-60, 3-Chloro-6-{(E)-1-[4-(cyclopentylsulfonyl)phenyl]-2-[(2R)-5-oxopyrrolidin-2-yl]ethenyl}pyridin-2(1H)-one]
24 | 500 to 3000 | CN1CCN(S(=O)(=O)c2ccc(/C(=C\[C@H]3CCC(=O)N3)c3ccc(Cl)c(=O)[nH]3)cc2)CC1 [Example 4-61, 3-Chloro-6-{(E)-1-{4-[(4-methylpiperazin-1-yl)sulfonyl]phenyl}-2-[(2R)-5-oxopyrrolidin-2-yl]ethenyl}pyridin-2(1H)-one]
25 | 500 to 3000 | CCN(CC)CCCOc1ccc(/C(=C\[C@H]2CCC(=O)N2)c2ccc(C3CC3)c(=O)[nH]2)cc1 [Example 4-65, 3-Cyclopropyl-6-{(E)-1-{4-[3-(diethylamino)propoxy]phenyl}-2-[(2R)-5-oxopyrrolidin-2-yl]ethenyl}pyridin-2(1H)-one]
26 | 10 to 500 | CC(C)c1ccc(/C(=C\[C@H]2CCC(=O)N2)c2ccc(C3CC3)c(=O)[nH]2)cc1 [Example 4-67, 3-Cyclopropyl-6-{(E)-2-[(2R)-5-oxopyrrolidin-2-yl]-1-[4-(propan-2-yl)phenyl]ethenyl}pyridin-2(1H)-one]

Row | SMILES | EC50 [nM]
27 | O=C1CC[C@H](/C=C(\c2ccc(OCCCCO)c(Cl)c2)c2ccc(Cl)c(=O)[nH]2)N1 [Example 4-38, 3-Chloro-6-{(E)-1-[3-chloro-4-(4-hydroxybutoxy)phenyl]-2-[(2R)-5-oxopyrrolidin-2-yl]ethenyl}pyridin-2(1H)-one] | 10 to 500
28 | CCN(CC)CCCCOc1ccc(/C(=C\[C@H]2CCC(=O)N2)c2ccc(C3CC3)c(=O)[nH]2)cc1Cl [Example 4-62, 6-{(E)-1-{3-Chloro-4-[4-(diethylamino)butoxy]phenyl}-2-[(2R)-5-oxopyrrolidin-2-yl]ethenyl}-3-cyclopropylpyridin-2(1H)-one] | 10 to 500
29 | CCN(CC)CCCCOc1ccc(/C(=C\[C@H]2CCC(=O)N2)c2ccc(Cl)c(=O)[nH]2)cc1Cl [Example 4-63, 3-Chloro-6-{(E)-1-{3-chloro-4-[4-(diethylamino)butoxy]phenyl}-2-[(2R)-5-oxopyrrolidin-2-yl]ethenyl}pyridin-2(1H)-one] | 500 to 3000
30 | O=C1CC[C@H](/C=C(\c2ccc(OCCCCN3CCCC3)c(Cl)c2)c2ccc(Cl)c(=O)[nH]2)N1 [Example 4-64, 3-Chloro-6-{(E)-1-{3-chloro-4-[4-(pyrrolidin-1-yl)butoxy]phenyl}-2-[(2R)-5-oxopyrrolidin-2-yl]ethenyl}pyridin-2(1H)-one] | 10 to 500

Reference: US8822503B2, “2-pyridone compounds” (Taisho Pharmaceutical Co., Ltd, priority 2009, dated 2014)
